We go through 19 compounds from ChEMBL document CHEMBL4811314, “Synthesis, biochemical, and biological evaluation of C2 linkage derivatives of amino sugars, inhibitors of glucokinase from Trypanosoma cruzi” (Bioorg Med Chem Lett, 2021).

The inhibition is the share of the control response that was lost under treatment. The term IC50 denotes the midpoint of a concentration-inhibition curve. In general, Ki refers to the equilibrium dissociation constant of an inhibitor or competing ligand from its target. Usually Vmax stands for the top rate of the reaction or transport when substrate is in excess. As usually defined, the Km is the substrate concentration at which the rate is half of its maximum.

In one data set the target is T1, Hexokinase-4 (Homo sapiens, UniProt P35557).
T1 sequence (P35557 whole entry): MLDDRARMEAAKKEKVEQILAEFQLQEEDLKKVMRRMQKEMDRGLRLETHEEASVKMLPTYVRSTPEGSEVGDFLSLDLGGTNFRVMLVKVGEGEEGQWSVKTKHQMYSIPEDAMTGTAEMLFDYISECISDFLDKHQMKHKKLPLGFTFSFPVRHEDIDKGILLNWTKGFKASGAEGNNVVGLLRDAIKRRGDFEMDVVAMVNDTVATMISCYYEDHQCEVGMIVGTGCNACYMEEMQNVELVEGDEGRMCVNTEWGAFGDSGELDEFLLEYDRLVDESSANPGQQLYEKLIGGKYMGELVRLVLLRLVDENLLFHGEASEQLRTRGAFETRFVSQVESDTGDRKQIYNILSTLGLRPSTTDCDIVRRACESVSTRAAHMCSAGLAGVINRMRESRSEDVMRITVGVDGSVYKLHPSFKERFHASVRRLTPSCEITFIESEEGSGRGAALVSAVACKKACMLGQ
Description: Inhibition of human hexokinase-4 at 20 uM relative to control.

The subject of data set [1] is Trypanosoma cruzi. Nature of the data set: Antitrypanosomal activity against Trypanosoma cruzi Tulahuen amastigotes infected in mouse NIH/3T3 cells assessed as parasite growth inhibition incubated for 4 days in glucose rich DMEM medium. The format is functional, organism-based. The following applies: NIH3T3, 96 h.
A further data set concerns Saccharomyces cerevisiae. Description: Inhibition of Saccharomyces cerevisiae G6PDH at 20 uM relative to control.
The nature of data set [2]: Inhibition of His6-tagged Trypanosoma cruzi glucokinase using D-glucose and ATP as substrates.
The nature of data set [3]: Inhibition of Trypanosoma cruzi glucokinase.
Data set [4] deals with Trypanosoma cruzi. Description: Antitrypanosomal activity against intracellular Trypanosoma cruzi Tulahuen […] infected in mouse NIH/3T3 cells assessed as parasite growth inhibition. The format is functional, organism-based. The conditions noted are these: NIH3T3.
In data set [5] the test system is Trypanosoma cruzi. Nature of the data set: Competitive inhibition of Trypanosoma cruzi glucokinase assessed as Vmax using varying levels of D-glucose as substrate in presence of ATP by Lineweaver-Burk plot analysis.
Data set [6] in a line: Competitive inhibition of Trypanosoma cruzi glucokinase using D-glucose as substrate in presence of ATP by Lineweaver-Burk plot analysis.
In data set [7] the test system is Trypanosoma cruzi. Nature of the data set: Competitive inhibition of Trypanosoma cruzi glucokinase assessed as Km using varying levels of D-glucose as substrate in presence of ATP by Lineweaver-Burk plot analysis.

The structures appear in SMILES notation.

On to `O=C(N[C@H]1C(O)O[C@H](CO)[C@@H](O)[C@@H]1O)c1ccccc1` (stereo partly specified), for which 20 µM produced 39.2% inhibition against Hexokinase-4. Moreover, the IC50 with Trypanosoma cruzi [1] was found to be 16.1 µM. For the same compound, in the data set on Saccharomyces cerevisiae, the inhibition was 0.5%. In addition, in data set [2], the Ki came to 32 µM.
Regarding `O=C(N[C@H]1C(O)O[C@H](CO)[C@H](O)[C@@H]1O)c1ccc(CCl)cc1` (stereo partly specified), at Hexokinase-4, testing at 20 µM gave an inhibition of 8.3%. The same compound gave an inhibition with Saccharomyces cerevisiae of 0%. Moreover, the Ki in [3] was above 500 µM. The IC50 in the data set with Trypanosoma cruzi [4] is 37.9 µM.
In the same order, the values of `O=C(N[C@H]1C(O)O[C@H](CO)[C@H](O)[C@@H]1O)c1cc2ccccc2o1` (stereo partly specified) are 36.5%, 0%, above 500 µM and 66.6 µM.
On Hexokinase-4, `O=C(N[C@H]1C(O)O[C@H](CO)[C@@H](O)[C@@H]1O)c1cccc(Br)c1` (stereo partly specified) came in with an inhibition at 20 µM of 31.2%. The compound further showed an inhibition in the data set on Saccharomyces cerevisiae of 0%. The Ki in data set [3] was 18 µM. For the same compound, the IC50 with Trypanosoma cruzi [4] was 66.2 µM.
In the same order, the values of `O=C(N[C@@H]1C(O)O[C@H](CO)[C@@H](O)[C@@H]1O)c1ccoc1` (stereo partly specified) are 31.6%, 0%, above 500 µM and 67.5 µM.
For `Cc1ccc(C(=O)N[C@@H]2C(O)O[C@H](CO)[C@@H](O)[C@@H]2O)o1` (stereo partly specified), in that order: 48.8%, 0%, 481 µM and above 80 µM.
On Hexokinase-4, `O=C(N[C@H]1C(O)O[C@H](CO)[C@@H](O)[C@@H]1O)c1ccc(CCl)cc1` (stereo partly specified) gave an inhibition at 20 µM of 35.8%. Also, the inhibition in the data set on Saccharomyces cerevisiae amounted to 0%. Besides, in data set [3], the inhibition constant Ki was above 500 µM. In the data set with Trypanosoma cruzi [4], the IC50 turned out to be 52.9 µM.
As for `O=C(Cn1ccnc1[N+](=O)[O-])NCc1ccccc1` [BENZNIDAZOLE], the IC50 in the data set on Trypanosoma cruzi [1] amounted to 1.12 µM.
Turning to `O=C(N[C@@H]1C(O)O[C@H](CO)[C@@H](O)[C@@H]1O)c1ccc(CCl)cc1` (stereo partly specified), the inhibition at 20 µM against Hexokinase-4 amounted to 28.1%. The compound further displayed an inhibition with Saccharomyces cerevisiae of 0%. The compound further had a Ki in [3] above 500 µM. For the same compound, the IC50 in the data set with Trypanosoma cruzi [4] was determined as 38.4 µM.
For `O=C(N[C@@H]1C(O)O[C@H](CO)[C@@H](O)[C@@H]1O)c1cc2ccccc2o1` (stereo partly specified), in that order: 12.4%, 0%, above 500 µM and 42.5 µM.
In turn, `O=C(N[C@H]1C(O)O[C@H](CO)[C@@H](O)[C@@H]1O)c1ccoc1` (stereo partly specified) returned an inhibition at 20 µM on Hexokinase-4 of 41.2%. The Vmax in the data set with Trypanosoma cruzi [5] was 6.3 10^-5M/min. The Ki in data set [6] and in [3] was 15.2 µM each time. In addition, the inhibition in the data set with Saccharomyces cerevisiae stood at 0%. In addition, in the data set with Trypanosoma cruzi [7], the Km turned out to be 840 µM. Also, the IC50 in the data set with Trypanosoma cruzi [4] stood at 49.9 µM.
Consider `O=C(N[C@H]1C(O)O[C@H](CO)[C@@H](O)[C@@H]1O)OCc1ccccc1` (stereo partly specified), for which, on Hexokinase-4, the inhibition at 20 µM was found to be 2%. Moreover, the IC50 with Trypanosoma cruzi [1] stood at 48.7 µM. This compound came in with an inhibition with Saccharomyces cerevisiae of 0%. This compound displayed a Ki in data set [2] of 0.71 µM.
For `O=C(N[C@H]1C(O)O[C@H](CO)[C@H](O)[C@@H]1O)c1cccc(Br)c1` (stereo partly specified), on Hexokinase-4, the inhibition at 20 µM came out at 29.8%. For the same compound, the inhibition in the data set with Saccharomyces cerevisiae was found to be 0%. In data set [3], this compound showed a Ki above 500 µM. The IC50 in the data set with Trypanosoma cruzi [4] is 19.9 µM.
In the same order, the values of `O=C(N[C@@H]1C(O)O[C@H](CO)[C@@H](O)[C@@H]1O)c1cccc(Br)c1` (stereo partly specified) are 27%, 0%, 320 µM and 38.4 µM.
For `O=C(N[C@@H]1C(O)O[C@H](CO)[C@@H](O)[C@@H]1O)c1ccccc1` (stereo partly specified), in that order: 55.5%, 0%, above 500 µM and 43.5 µM.
Consider `O=C(N[C@H]1C(O)O[C@H](CO)[C@H](O)[C@@H]1O)c1ccccc1` (stereo partly specified), for which 20 µM produced 37.8% inhibition against Hexokinase-4. For the same compound, in the data set on Saccharomyces cerevisiae, the inhibition was determined as 0%. The Ki in data set [3] was above 500 µM. Besides, the IC50 in the data set on Trypanosoma cruzi [4] stood at 55.3 µM.
In the case of `O=C(N[C@H]1C(O)O[C@H](CO)[C@H](O)[C@@H]1O)c1ccoc1` (stereo partly specified), 20 µM produced 47.2% inhibition at Hexokinase-4. For the same compound, the inhibition in the data set with Saccharomyces cerevisiae came to 0%. Further, the Ki in data set [3] was above 500 µM. Further, the IC50 with Trypanosoma cruzi [4] worked out at 36.4 µM.
Consider `C[C@@H]1[C@H](O)[C@@H](C)/C=C/C=C/C=C/C=C/C=C/C=C/C=C/[C@H](O[C@@H]2O[C@H](C)[C@@H](O)[C@H](N)[C@@H]2O)C[C@@H]2O[C@](O)(C[C@@H](O)C[C@@H](O)[C@H](O)CC[C@@H](O)C[C@@H](O)CC(=O)O[C@H]1C)C[C@H](O)[C@H]2C(=O)O` [AMPHOTERICIN B], for which, in the data set on Trypanosoma cruzi [4], the IC50 is 1.85 µM.
`O=C(N[C@H]1C(O)O[C@H](CO)[C@@H](O)[C@@H]1O)c1cc2ccccc2o1` (stereo partly specified) registered an inhibition at 20 µM on Hexokinase-4 of 25.2%. Further, the Vmax in the data set on Trypanosoma cruzi [5] is 8.1 10^-5M/min. Further, the Ki in [6] and in data set [3] was 107 µM throughout. Also, the inhibition in the data set with Saccharomyces cerevisiae came to 0%. Besides, the Km in the data set with Trypanosoma cruzi [7] stood at 890 µM. For the same compound, in the data set with Trypanosoma cruzi [4], the IC50 came to 27.2 µM.
